Reference: patent publication US8709391B2, “Family of pain producing substances and methods to produce novel analgesic drugs” (Board of Regents of the University of Texas System, priority 2008, dated 2014)

Legend:
[1] = system: WT mice; assay: hindpaw intraplantar (ipl) injection, thermal allodynia, WT mice; format: in vivo, mouse
[2] = system: TG neurons from WT mice; assay: [Ca2+]i levels in cultured TG neurons from WT mice; format: cell-based, mouse; conditions: for [Ca2+]i response evoked in TG neurons / responding neurons / capsaicin-sensitive neurons: 100 μM
Protocol: (§1) FIGS. 1A-H depict that endogenous TRPV1 ligands are generated upon heat insult of mouse skin. The hypothesis of heat-evoked generation of endogenous TRPV1 ligand(s) was evaluated by harvesting mouse skin and then collecting superfusate samples after 20 min exposure to basal (37° C.=“control” skin) or noxious (48° C.=“heated” skin) temperatures. Aliquots of the two superfusates were applied, at room temperature, to cultured trigeminal ganglia (TG) neurons from wild type (WT) or TRPV1 knock out (TRPV1 KO) mice for measurement of evoked increases in intracellular calcium levels [Ca^2+]i. […] Conversely, there were no changes in [Ca^2+]i after application of supernatants from heated skin to either TRPV1 KO cultures (FIG. 1B; mustard oil served as a positive control) or to WT neurons insensitive to capsaicin (data not shown).
(§2) The pharmacological activity of synthetic 9-HODE and related compounds on sensory neurons was characterized. […] Another major metabolic pathway of linoleic acid leads to formation of 13-HODE and its metabolite, 13-oxoODE. The relative efficacy of these four compounds for evoked [Ca^2+]i levels was evident when tested in cultured neurons from WT mice (FIG. 3G) and in TRPV1-expressing CHO cells (FIG. 3H).
(§3) The epoxy metabolite, 9,10 EpOME (also known as leukotoxin), is highly elevated in burn patients and is implicated in shock in these patients.
(§4) FIG. 12 depicts the effect of lipids extracted from burned human skin samples against cultured trigeminal sensory neurons from control (wild type, “WT”) mice and from TRPV1 knock-out mice. Samples of burned human skin and control (non-burned) human skin from patients undergoing treatment in a hospital burn ward were obtained. The lipids from the skin samples were extracted by incubation with acetonitrile and the samples dried under nitrogen gas. The samples were tested against cultured trigeminal sensory neurons from control (wild type, “WT”) mice and from TRPV1 knock-out mice using real time imaging of calcium accumulation (fura-2 method). Extracts from human control (non burned) skin had no effect on activating neurons from either control (WT) or TRPV1 knockout (TRPV1 KO) mice. […] Thus, similar to the oxidized linoleic acid metabolites, the extracts from burned human skin activate TRPV1 and some other channels.

[3] = system: TG neurons from TRPV1 KO mice; assay: [Ca2+]i levels in cultured TG neurons from TRPV1 KO mice; format: cell-based, mouse
Protocol: as §1, §2, §3, §4

[4] = system: TRPV1 KO mice; assay: hindpaw intraplantar (ipl) injection, thermal allodynia, TRPV1 KO mice; format: in vivo, mouse
[5] = molecular target: T1, TRPV4 (Homo sapiens, UniProt Q9HBA0); assay: [Ca2+]i in CHO cells expressing TRPV4; format: cell-based; conditions: screening against other heat-sensitive TRP channels
T1 construct: expressed in transfected cells; host or cells: CHO cells
Excerpt: as §3
FIG. 13 depicts the effect of lipids, extracted from burned human skin samples, and then applied to CHO cells that expressed either TRPV1, TRPV2, TRPV3, TRPV4 or TRPA1, using real time calcium imaging. As shown, the extracts of the burned human skin activated TRPV1, TRPV3, TRPV4 and TRPA1, but not TRPV2.

[6] = system: cultured rat TG neurons; assay: CGRP release from cultured rat TG neurons evoked by 9-HODE; format: cell-based
[7] = system: rats; assay: intrathecal application, tactile allodynia in rats; format: in vivo, rat
Excerpt: FIGS. 9A-D depict that spinal injection (intrathecal) of capsaicin or 9-HODE into the spinal cord space results in tactile allodynia. This effect is mediated by activation of TRPV1 since it is blocked by a TRPV1 antagonist (AMG 9810). […] The results were compared with the results obtained with the positive control capsaicin. […] Comparison of the peak effect evoked by both capsaicin and 9-HODE is shown in FIGS. 9C-D. The effects were remarkably similar.

[8] = system: rat TG neurons; assay: activation of rat TG neurons by compound(s) released from heated skin, pretreatment with TRPV1 antagonist; format: cell-based; conditions: I-RTX 200 nM pretreatment; superfusates from skin exposed to 48° C.
Protocol: To further characterize the TRPV1 specificity of these endogenous heat-generated compound(s), the effect of pretreatment with the TRPV1 antagonist iodo-resiniferatoxin (I-RTX) on the activation of rat TG neurons was evaluated. […] Moreover, application of these compound(s) triggered prompt increases in [Ca]i in CHO cells expressing TRPV1, but not in negative control CHO cells that expressed a GFP construct (FIGS. 1E-F). Next, initial superfusion experiments in isolated mouse skin were expanded by collecting supernatant after exposure to various temperatures and evaluating the release of endogenous TRPV1 compound(s).

[9] = system: rat TG neurons; assay: heat-evoked (48° C.) iCGRP release from rat TG neurons; format: cell-based; conditions: NDGA 10 uM, indomethacin 2 uM, I-RTX 200 nM
[10] = system: rats; assay: thermal nociception in rats after intraplantar hindpaw (ipl) injection; format: in vivo, rat; conditions: 100 ug/paw ipl, 15 minute, ipsilateral hindpaw
Protocol: The intraplantar hindpaw (ipl) injection of NDGA, miconazole, and a combination of anti 9-HODE and anti-13-HODE was compared to morphine sulfate, a gold standard analgesic. […] The studies were performed in a separate groups of animals for each condition and by observers blinded to treatment allocation (all compounds at 100 ug/paw and antibodies were each 25 ug/paw) (FIG. 10).

[11] = system: rat TG neurons; assay: patch clamp electrophysiology, heat (48° C.)-evoked inward current (Iheat) in rat TG neurons; format: cell-based; conditions: pretreatment, NDGA 30 uM, miconazole 100 uM
Protocol: FIGS. 5A-D depict that interventions reducing production or action of linoleic acid oxidation products results in decreased thermal pain. Whether heat-evoked activation of rat TG neurons is inhibited by interventions directed against linoleic acid metabolites was evaluated. […] Using patch clamp electrophysiology, the local application of a heat step (48° C.) produced a strong inward current (Iheat) in TG neurons. Pretreatment with NDGA produced ˜50% reduction (p<0.05) in Iheat. (FIG. 5B). In a similar patch clamp electrophysiology set up, pretreatment with miconazole (100 uM) produced more than 75% reduction (p<0.001) in Iheat (FIG. 5C). Whether intracellular immunoneutralization against 9-HODE and 13-HODE alters the responsiveness of sensory neurons to noxious heat was evaluated next. A solution containing both anti-9-HODE and anti-13-HODE antibodies (concentrations of 0.03-0.06 ug and 0.006-0.012 ug/patch pipette respectively) was delivered intracellularly via dialysis for 5 min prior to the application of a heat step (48° C.).

[12] = system: rat trigeminal sensory neurons; assay: linoleic acid activation of rat trigeminal sensory neurons, intracellular calcium (Fura-2); format: cell-based; conditions: pretreatment; for inhibition of the formation of linoleic acid metabolites (neuron-activating compounds): concluded from the neuron activation test
Excerpt: FIG. 14 depicts the effects of pretreatment with either cytochrome P450 inhibitors (NDGA, DPI, CO or ketoconazole, ODYA), nitric oxide synthase inhibitors (L-NAME, L-NNA), lipoxygenase inhibitors (BW-70C, PD, TEDC) or antioxidants (TROLOX, NAC, TEMPOL) versus negative controls (vehicle, argon) on the ability of linoleic acid to activate rat trigeminal sensory neurons as measured by real time levels of intracellular calcium (Fura-2, as indicated by the ratio of 340/380).

T1 sequence (Q9HBA0 whole entry, species assumed): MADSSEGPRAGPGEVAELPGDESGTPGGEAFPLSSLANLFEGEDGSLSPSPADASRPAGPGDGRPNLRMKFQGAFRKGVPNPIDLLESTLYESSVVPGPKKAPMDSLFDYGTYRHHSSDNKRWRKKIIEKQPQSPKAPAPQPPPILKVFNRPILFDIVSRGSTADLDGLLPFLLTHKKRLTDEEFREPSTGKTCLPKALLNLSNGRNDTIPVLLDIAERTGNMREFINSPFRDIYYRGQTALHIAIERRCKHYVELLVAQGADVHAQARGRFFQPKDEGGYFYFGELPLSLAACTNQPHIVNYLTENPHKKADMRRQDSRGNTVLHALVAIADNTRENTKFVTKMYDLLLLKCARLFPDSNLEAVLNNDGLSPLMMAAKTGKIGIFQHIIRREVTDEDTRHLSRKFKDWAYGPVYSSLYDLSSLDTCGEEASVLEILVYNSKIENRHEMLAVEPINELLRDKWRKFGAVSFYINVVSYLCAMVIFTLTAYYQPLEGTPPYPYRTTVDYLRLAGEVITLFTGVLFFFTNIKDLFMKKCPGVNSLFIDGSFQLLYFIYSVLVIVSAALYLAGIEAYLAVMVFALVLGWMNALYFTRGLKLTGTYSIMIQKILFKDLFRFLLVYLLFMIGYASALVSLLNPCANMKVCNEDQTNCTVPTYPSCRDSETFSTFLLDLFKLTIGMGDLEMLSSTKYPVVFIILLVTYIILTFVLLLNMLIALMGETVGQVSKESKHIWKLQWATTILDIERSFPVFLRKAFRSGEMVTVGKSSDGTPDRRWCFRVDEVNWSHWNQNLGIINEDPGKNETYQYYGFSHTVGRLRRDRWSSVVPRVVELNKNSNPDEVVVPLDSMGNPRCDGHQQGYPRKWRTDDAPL

CCCCC/C=C\CC1OC1CCCCCCCC(=O)O (stereo not shown) [9,10 EpOME, (12Z)-9,10-epoxyoctadecenoic acid]
thermal allodynia after ipl injection ([1]; 50 μg/ipl): evoked thermal allodynia
[Ca2+]i response evoked in TG neurons [2]: evoked calcium accumulation only in capsaicin-sensitive neurons
responding neurons / capsaicin-sensitive neurons [2]: 58/58
responding neurons / tested neurons [3]: 0/58
thermal allodynia after ipl injection ([4]; 50 μg/ipl): absent

CCCCCC=CCC(O)C(O)CCCCCCCC(=O)O (stereo not shown) [9,10-DiHOME, 9(10)-dihydroxy-octadec-12-enoic acid]
TRPV4 agonist activity [5]: TRPV4 agonist

CCCCC/C=C\C=C\C(O)CCCCCCCC(=O)O (stereo not shown) [9-HODE, 9-hydroxyoctadecadienoic acid]
thermal allodynia after ipl injection ([1]; blinded observers): significantly greater thermal allodynia
concentration at which effects on CGRP release are evident [6]: 10 nM
EC50 ([6]; read-out: EC50 of increase in CGRP release): ~300 nM
[Ca2+]i response evoked in TG neurons [2]: robust response
responding neurons / capsaicin-sensitive neurons [2]: 75/75
tactile allodynia evoked by intrathecal application ([7]; 5 ug intrathecal): evoked tactile allodynia that was of similar magnitude and duration to that of capsaicin
magnitude of [Ca2+]i accumulation and its time course compared to WT neurons [3]: greatly reduced
responding neurons / tested neurons [3]: 3/66
tested neurons with a slight response [3]: 4%
thermal allodynia after ipl injection ([4]; blinded observers): not in TRPV1 KO mice

CCCCC/C=C\C=C\C(=O)CCCCCCCC(=O)O [9-oxoODE, (10E,12Z)-9-oxooctadeca-10,12-dienoic acid]
[Ca2+]i levels after application ([2]; concentration not given): triggered increased [Ca^2+]i levels
[Ca2+]i levels after application ([3]; concentration not given): not in neurons from TRPV1 KO mice

CC(C)(C)c1ccc(/C=C/C(=O)Nc2ccc3c(c2)OCCO3)cc1 [AMG 9810]
reversal of 9-HODE-evoked tactile allodynia ([7]; AMG 9810 50 ug, 9-HODE 5 ug intrathecal): completely reversible
reversal of capsaicin-evoked tactile allodynia ([7]; AMG 9810 50 ug, capsaicin 5 ug intrathecal): completely reversible
effect alone on mechanical withdrawal thresholds ([7]; antagonist alone, intrathecal): Neither the vehicle nor AMG 9810 alone had any effect

C=C(C)[C@]12C[C@@H](C)[C@@]34O[C@](Cc5ccccc5)(O[C@@H]1[C@@H]3C=C(COC(=O)Cc1cc(I)c(O)c(OC)c1)C[C@]1(O)C(=O)C(C)=C[C@@H]41)O2 [I-RTX, iodo-resiniferatoxin]
block of activation of neurons by compound(s) released from heated skin [8]: completely blocked
reversal of heat-evoked iCGRP release by pretreatment [9]: partially reversed

CC(Cc1ccc(O)c(O)c1)C(C)Cc1ccc(O)c(O)c1 (stereo not shown) [NDGA, Nordihydroguaiaretic Acid]
reversal of heat-evoked iCGRP release by pretreatment [9]: partially reversed
thermal antinociception [10]: thermal antinociception far beyond that of the vehicle or morphine injected rats
reduction in Iheat [11]: ~50%

C#CCCCCCCCCCCCCCCCC(=O)O [ODYA, 17-Octadecynoic acid]
inhibition of the formation of linoleic acid metabolites (neuron-activating compounds) [12]: does not

COc1cc(CNC(=O)CCCC/C=C/C(C)C)ccc1O [capsaicin]
duration of tactile allodynia post injection ([7]; 5 ug intrathecal): 1 h
tactile allodynia evoked by intrathecal application ([7]; 5 ug intrathecal): evoked tactile allodynia

COc1ccc2c(c1)c(CC(=O)O)c(C)n2C(=O)c1ccc(Cl)cc1 [indomethacin]
reversal of heat-evoked iCGRP release by pretreatment [9]: not

CC(=O)N1CCN(c2ccc(OCC3COC(Cn4ccnc4)(c4ccc(Cl)cc4Cl)O3)cc2)CC1 (stereo not shown) [ketoconazole]
block of the ability of linoleic acid to activate pain neurons ([12]; Fura-2 ratio 340/380): completely blocked
inhibition of the formation of linoleic acid metabolites (neuron-activating compounds) [12]: inhibits the formation of linoleic acid metabolites

Clc1ccc(COC(Cn2ccnc2)c2ccc(Cl)cc2Cl)c(Cl)c1 (stereo not shown) [miconazole]
thermal antinociception [10]: thermal antinociception far beyond that of the vehicle or morphine injected rats
reduction in Iheat [11]: more than 75%
